Test results reported in PubChem BioAssay AID248 (DTP/NCI, 2004).
“And” between values parts separate entries of the source, which are not always exact repeats. Equal entries are not always repeated. Inconclusive results and toxic doses are left out. Rule as the data show it: active = T/C of 150% or more; inactive = T/C below 125%.

System: L1210 leukemia ip in BDF1 mice, survival T/C
Assay: NCI In Vivo Anticancer Drug Screen. Data for tumor model L1210 Leukemia (intraperitoneal) in B6D2F1 (BDF1) mice
Conditions: endpoint: mean survival time, higher = longer survival
In short: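 Mice bearing the transplanted tumor received compound or vehicle. Survival of the treated group was divided by that of the vehicle-treated control group to give the ratio.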

[1] = dose: 100.0 mg/kg/injection, schedule: Q01DX001 (ip), vehicle: saline
[2] = dose: 200.0 mg/kg/injection, schedule: Q01DX001 (ip), vehicle: saline
[3] = dose: 400.0 mg/kg/injection, schedule: Q01DX001 (ip), vehicle: saline
[4] = dose: 100.0 mg/kg/injection, schedule: Q04DX003 (ip), vehicle: Klucel (hydroxypropylcellulose) (HPC)
[5] = dose: 200.0 mg/kg/injection, schedule: Q04DX003 (ip), vehicle: Klucel (hydroxypropylcellulose) (HPC)
[6] = dose: 100.0 mg/kg/injection, schedule: Q01DX009 (ip), vehicle: Klucel (hydroxypropylcellulose) (HPC)
[7] = dose: 200.0 mg/kg/injection, schedule: Q01DX009 (ip), vehicle: Klucel (hydroxypropylcellulose) (HPC)
[8] = dose: 400.0 mg/kg/injection, schedule: Q01DX009 (ip), vehicle: Klucel (hydroxypropylcellulose) (HPC)
[9] = dose: 400.0 mg/kg/injection, schedule: Q04DX003 (ip), vehicle: Klucel (hydroxypropylcellulose) (HPC)
[10] = dose: 100.0 mg/kg/injection, schedule: Q04DX003 (ip), vehicle: saline with Tween-80
[11] = dose: 25.0 mg/kg/injection, schedule: Q01DX001 (ip), vehicle: saline
[12] = dose: 50.0 mg/kg/injection, schedule: Q01DX009 (ip), vehicle: Klucel (hydroxypropylcellulose) (HPC)
[13] = dose: 100.0 mg/kg/injection, schedule: Q04DX003 (ip), vehicle: saline

Measured: T/C

CC(C)([CH2][Sn]([CH2]C(C)(C)c1ccccc1)([CH2]C(C)(C)c1ccccc1)[CH2]C(C)(C)c1ccccc1)c1ccccc1
inactive: dose: 5.0 mg/kg/injection, schedule: Q01DX009 (sc), vehicle: olive oil, sesame oil, peanut oil 102 % of control | dose: 5.0 mg/kg/injection, schedule: Q04DX003 (sc), vehicle: olive oil, sesame oil, peanut oil 92 % of control | dose: 10.0 mg/kg/injection, schedule: Q01DX009 (sc), vehicle: olive oil, sesame oil, peanut oil 107 % of control | dose: 10.0 mg/kg/injection, schedule: Q04DX003 (sc), vehicle: olive oil, sesame oil, peanut oil 92 % of control | dose: 20.0 mg/kg/injection, schedule: Q01DX009 (sc), vehicle: olive oil, sesame oil, peanut oil 102 % of control | dose: 20.0 mg/kg/injection, schedule: Q04DX003 (sc), vehicle: olive oil, sesame oil, peanut oil 92 % of control

CCOC(=O)Cc1cc(=O)c2cc(C)ccc2[nH]1
inactive: [1] 90 % of control | [2] 89 % of control | [3] 90 % of control

CCOC(=O)C(CC)(OO)c1ccncc1Br (stereo unspecified)
inactive: dose: 25.0 mg/kg/injection, schedule: Q01DX001 (ip), vehicle: Klucel (hydroxypropylcellulose) (HPC) 101 % of control | dose: 50.0 mg/kg/injection, schedule: Q01DX001 (ip), vehicle: Klucel (hydroxypropylcellulose) (HPC) 104 % of control | dose: 50.0 mg/kg/injection, schedule: Q04DX003 (ip), vehicle: Klucel (hydroxypropylcellulose) (HPC) 101 % of control | dose: 100.0 mg/kg/injection, schedule: Q01DX001 (ip), vehicle: Klucel (hydroxypropylcellulose) (HPC) 100 % of control and 101 % of control | [4] 91 % of control | [5] 92 % of control

O=C(O)Cc1ccc(N=Nc2c(O)c(C(=O)O)cc3ccccc23)cc1
inactive: [6] 96 % of control | [4] 93 % of control | [7] 105 % of control | [5] 100 % of control | [8] 100 % of control | [9] 103 % of control

C=CCOC(=O)OCc1ccccc1
inactive: dose: 222.0 mg/kg/injection, schedule: Q01DX Z (ip), vehicle: methylcellulose (MC) 92 % of control | dose: 333.0 mg/kg/injection, schedule: Q01DX Z (ip), vehicle: methylcellulose (MC) 89 % of control

C=CC(C)(C)c1ccccc1O
inactive: [10] 95 % of control | dose: 200.0 mg/kg/injection, schedule: Q04DX003 (ip), vehicle: saline with Tween-80 104 % of control

CCNS(=O)(=O)O
inactive: [11] 98 % of control | dose: 50.0 mg/kg/injection, schedule: Q01DX001 (ip), vehicle: saline 104 % of control | [1] 107 % of control and 120 % of control | [2] 102 % of control | [3] 105 % of control

O=C1C=CC(=O)C(c2ccccc2)=C1
inactive: dose: 6.0 mg/kg/injection, schedule: Q04DX003 (ip), vehicle: Klucel (hydroxypropylcellulose) (HPC) 95 % of control | dose: 12.0 mg/kg/injection, schedule: Q01DX001 (ip), vehicle: saline 104 % of control | dose: 12.0 mg/kg/injection, schedule: Q01DX009 (ip), vehicle: Klucel (hydroxypropylcellulose) (HPC) 90 % of control | dose: 12.0 mg/kg/injection, schedule: Q04DX003 (ip), vehicle: Klucel (hydroxypropylcellulose) (HPC) 98 % of control | [11] 100 % of control | dose: 25.0 mg/kg/injection, schedule: Q01DX009 (ip), vehicle: Klucel (hydroxypropylcellulose) (HPC) 100 % of control | dose: 25.0 mg/kg/injection, schedule: Q04DX003 (ip), vehicle: Klucel (hydroxypropylcellulose) (HPC) 98 % of control | [12] 100 % of control

CC1=CC=CC(C)(Cc2ccc(-c3ccc(CC4(C)C=CC=C(C)C4=O)cc3)cc2)C1=O (stereo unspecified)
inactive: dose: 100.0 mg/kg/injection, schedule: Q01DX001 (ip), vehicle: saline sonified 92 % of control | dose: 200.0 mg/kg/injection, schedule: Q01DX001 (ip), vehicle: saline sonified 90 % of control | dose: 400.0 mg/kg/injection, schedule: Q01DX001 (ip), vehicle: saline sonified 95 % of control

CCN(CC)CCn1c2ccncc2c2cnccc21
inactive: dose: 25.0 mg/kg/injection, schedule: Q04DX003 (ip), vehicle: saline 96 % of control | dose: 50.0 mg/kg/injection, schedule: Q04DX003 (ip), vehicle: saline 101 % of control | [13] 103 % of control

Cc1nn(C)c(N)c1N=O
inactive: [12] 102 % of control | [6] 98 % of control | [7] 102 % of control

S=C(NCc1ccccc1)C(=S)NCc1ccccc1
inactive: [4] 105 % of control | [5] 98 % of control

CCOC(=O)/C(=C\c1ccccc1)C(C)=O
inactive: [4] 101 % of control | [5] 92 % of control | [9] 104 % of control

Cc1ccc(Nc2nc(N)nc(N)c2N)cc1
inactive: dose: 6.0 mg/kg/injection, schedule: Q01DX Z (ip), vehicle: saline 95 % of control | dose: 12.0 mg/kg/injection, schedule: Q01DX Z (ip), vehicle: saline 97 % of control

O=N/C=C/C(=N/Nc1ccc(C(=O)O)cc1)[N+](=O)[O-]
inactive: [1] 101 % of control | [2] 93 % of control | [3] 93 % of control

CCSC(SCC)C(SCC)C(O)C(O)C(O)CO (stereo unspecified)
inactive: dose: 100.0 mg/kg/injection, schedule: Q01DX001 (ip), vehicle: carboxymethylcellulose (CMC) 106 % of control | dose: 200.0 mg/kg/injection, schedule: Q01DX001 (ip), vehicle: carboxymethylcellulose (CMC) 112 % of control | dose: 400.0 mg/kg/injection, schedule: Q01DX001 (ip), vehicle: carboxymethylcellulose (CMC) 114 % of control

O=S(=O)(N=C1C(Cl)=C(Cl)C(=NS(=O)(=O)c2ccccc2)C(Cl)=C1Cl)c1ccccc1
inactive: [6] 98 % of control | [7] 100 % of control | [8] 101 % of control

Cn1c2c(c(=O)n(C)c1=O)CC(=O)N2
inactive: [12] 100 % of control | [6] 103 % of control

COc1ccc(/C=C/C(=O)c2ccc3c(c2)OCO3)cc1O
inactive: dose: 50.0 mg/kg/injection, schedule: Q01DX009 (ip), vehicle: saline 100 % of control | dose: 100.0 mg/kg/injection, schedule: Q01DX009 (ip), vehicle: saline 93 % of control | [13] 93 % of control | dose: 200.0 mg/kg/injection, schedule: Q01DX009 (ip), vehicle: saline 100 % of control | dose: 200.0 mg/kg/injection, schedule: Q04DX003 (ip), vehicle: saline 97 % of control | dose: 300.0 mg/kg/injection, schedule: Q01DX009 (ip), vehicle: saline 120 % of control | dose: 400.0 mg/kg/injection, schedule: Q04DX003 (ip), vehicle: saline 87 % of control

CCOP(=S)(OCC)SC(C)(C)C
inactive: dose: 25.0 mg/kg/injection, schedule: Q04DX003 (ip), vehicle: saline with Tween-80 95 % of control | dose: 50.0 mg/kg/injection, schedule: Q04DX003 (ip), vehicle: saline with Tween-80 103 % of control | [10] 104 % of control and 108 % of control

c1ccc2n[nH]nc2c1
inactive: dose: 50.0 mg/kg/injection, schedule: Q04DX002 (ip), vehicle: saline with Tween-80 95 % of control | dose: 100.0 mg/kg/injection, schedule: Q04DX002 (ip), vehicle: saline with Tween-80 106 % of control | dose: 200.0 mg/kg/injection, schedule: Q04DX002 (ip), vehicle: saline with Tween-80 98 % of control

COc1cc(/C=N/N=C/c2cc(OC)cc(OC)c2)cc(OC)c1
inactive: dose: 100.0 mg/kg/injection, schedule: Q04DX002 (ip), vehicle: Klucel (hydroxypropylcellulose) (HPC) 98 % of control | dose: 200.0 mg/kg/injection, schedule: Q04DX002 (ip), vehicle: Klucel (hydroxypropylcellulose) (HPC) 100 % of control | dose: 400.0 mg/kg/injection, schedule: Q04DX002 (ip), vehicle: Klucel (hydroxypropylcellulose) (HPC) 107 % of control
